{"source": "patent EP0431323A1", "about": "“Antitumor antibiotic BU-3983T” (priority 1989, dated 1991)", "key": {"[1]": {"system": "DNA synthesis in B16-F10 melanoma cells", "assay": "Inhibition of macromolecule synthesis: DNA (3H-thymidine incorporation)", "type": "cell-based, murine", "conditions": "Mus musculus, 4.5 hours + 30 minutes label, read-out: IC₅₀ DNA", "description": "(§2) B16-F10 cells (10⁵ cells/ml) were incubated with test materials at 37°C for 4.5 hours (for DNA synthesis) or 4 hours (for RNA and protein syntheses). Labelled precursor, ³H-thymidine, ¹⁴C-uridine or ³H-leucine was added to the culture and further incubated for 30 minutes (for DNA) or 60 minutes (for RNA and protein). After washing with chilled 5% trichloroacetic acid solution, the radioactivity incorporated into the acid-insoluble fraction of the tumor cells was determined by a liquid scintillation counter. Actinomycin D was used as a reference compound."}, "[2]": {"system": "RNA synthesis in B16-F10 melanoma cells", "assay": "Inhibition of macromolecule synthesis: RNA (14C-uridine incorporation)", "type": "cell-based, murine", "conditions": "Mus musculus, 4 hours + 60 minutes label, read-out: IC₅₀ RNA", "description": "as §2"}, "[3]": {"system": "Protein synthesis in B16-F10 melanoma cells", "assay": "Inhibition of macromolecule synthesis: protein (3H-leucine incorporation)", "type": "cell-based, murine", "conditions": "Mus musculus, 4 hours + 60 minutes label, read-out: IC₅₀ Protein", "description": "as §2"}, "[4]": {"system": "B16 melanoma", "assay": "In vivo antitumor activity in tumor-bearing mice, B16 melanoma (ip)", "conditions": "B16 melanoma ip, BDF₁ mice, Q4D x 3; for T/C: significant if T/C ≧ 125%", "procedure": "(§1) In vivo antitumor activity of BU-3983T was examined using tumor-bearing mice. Male BDF₁ mice were intraperitoneally inoculated with 0.5 ml of 10% melanotic melanoma B16 brei, and female CDF₁ mice were intraperitoneally inoculated with 0.4 ml of diluted ascitic fluid containing 10⁶ lymphocytic leukemia P388 cells or 10⁵ lymphoid leukemia L1210 cells. Mitomycin C was used as a reference compound. Test compounds were intraperitoneally administered to the mice by the following treatment schedules: once a day on day 1 only (Q1D x 1), on days 1, 5 and 9 (Q4D x 3) or on days 1 to 9 (Q1D x 9). […]"}, "[5]": {"system": "P388 leukemia", "assay": "In vivo antitumor activity in tumor-bearing mice, P388 leukemia (ip)", "conditions": "P388 leukemia ip, CDF₁ mice, Q1D x 1; for T/C: significant if T/C ≧ 125%", "procedure": "as §1"}, "[6]": {"system": "L1210 leukemia", "assay": "In vivo antitumor activity in tumor-bearing mice, L1210 leukemia (ip)", "conditions": "L1210 leukemia ip, CDF₁ mice, Q1D x 1; for T/C: significant if T/C ≧ 125%", "procedure": "as §1"}, "[7]": {"system": "Gram-positive organism", "conditions": "Sheehan et al, J. Am. Chem. Soc., 90, 462 (1968); cited from earlier work"}, "[8]": {"system": "Gram-negative bacteria", "conditions": "Sheehan et al, J. Am. Chem. Soc., 90, 462 (1968); cited from earlier work"}, "[9]": {"system": "Gram-positive microorganisms", "conditions": "Maehr, et al, J. Antibiotics, 39, 17 (1986); cited from earlier work"}, "[10]": {"system": "platelet aggregation", "conditions": "Fujioka, et al, J. Org. Chem. 53, 2820 (1988); cited from earlier work"}, "[11]": {"conditions": "Fujioka, et al, J. Org. Chem. 53, 2820 (1988); cited from earlier work"}}, "note": "Numbered stars: 1 amine (or outer) side, 2 acyl side, 3 side chain; on linkers, the order of the positions; unused ones are H or OH. Bridge positions count the residues as written; N and C are the ends. Square brackets hold non-standard residues; d marks the D form. Peptide text beside a SMILES is read from it. I, II: the chains in the order shown. * marks the point of attachment. Actinocin(9to1) = Cc1c2oc3c(C)ccc(C(=O)[*:1])c3nc-2c(C(=O)[*:2])c(N)c1=O; Leu(3R-OH,Nα-propionyl) = CCC(=O)N[C@H](C(=O)*)[C@H](O)C(C)C; X1 = CC(C)[C@@H](O[*:3])[C@H](N[*:1])C(=O)[*:2]; NMeT = CN[C@H](C(=O)O)[C@@H](C)O; dPhLac = O=C(O)[C@H](O)Cc1ccccc1; NMeV = CN[C@H](C(=O)O)C(C)C; NMeA = CN[C@@H](C)C(=O)O; NMeDha = C=C(NC)C(=O)O; Sar = CNCC(=O)O"}
{"compound": "Cc1c2oc3c(C)ccc(C(=O)N[C@@H]4C(=O)N[C@H](C(C)C)C(=O)N5CCC[C@H]5C(=O)N(C)CC(=O)N(C)[C@@H](C(C)C)C(=O)O[C@@H]4C)c3nc-2c(C(=O)N[C@@H]2C(=O)N[C@H](C(C)C)C(=O)N3CCC[C@H]3C(=O)N(C)CC(=O)N(C)[C@@H](C(C)C)C(=O)O[C@@H]2C)c(N)c1=O", "note": "[Actinomycin D, reference compound] (I: T[dV]P[Sar][NMeV] / II: T[dV]P[Sar][NMeV]; ester I:1-I:C, II:1-II:C; linker I:N-II:N via Actinocin(9to1))", "values": [{"measurement": "IC50", "setting": "[1]", "value": 1.3, "unit": "mg/L"}, {"measurement": "IC50", "setting": "[2]", "value": 0.07, "unit": "mg/L"}, {"measurement": "IC50", "setting": "[3]", "value": "> 30", "unit": "mg/L"}]}
{"compound": "CO[C@@]12[C@H](COC(N)=O)C3=C(C(=O)C(C)=C(N)C3=O)N1C[C@@H]1N[C@@H]12", "note": "[Mitomycin C, reference compound]", "values": [{"measurement": "Body weight change on day 5", "setting": "[4]; 0.25 mg/kg/day ip", "value": "+0.8 g"}, {"measurement": "MST (Median survival time)", "setting": "[4]; 0.25 mg/kg/day ip", "value": 15.5, "unit": "days"}, {"measurement": "T/C", "setting": "[4]; 0.25 mg/kg/day ip", "value": 119, "unit": "%"}, {"measurement": "Body weight change on day 5", "setting": "[4]; 0.5 mg/kg/day ip", "value": "+0.6 g"}, {"measurement": "MST (Median survival time)", "setting": "[4]; 0.5 mg/kg/day ip", "value": 18.0, "unit": "days"}, {"measurement": "T/C", "setting": "[4]; 0.5 mg/kg/day ip", "value": "138*² %"}, {"measurement": "Body weight change on day 5", "setting": "[4]; 1 mg/kg/day ip", "value": "+0.8 g"}, {"measurement": "MST (Median survival time)", "setting": "[4]; 1 mg/kg/day ip", "value": 22.0, "unit": "days"}, {"measurement": "T/C", "setting": "[4]; 1 mg/kg/day ip", "value": "169*² %"}, {"measurement": "Body weight change on day 5", "setting": "[4]; 2 mg/kg/day ip", "value": "+0.5 g"}, {"measurement": "MST (Median survival time)", "setting": "[4]; 2 mg/kg/day ip", "value": 27.5, "unit": "days"}, {"measurement": "T/C", "setting": "[4]; 2 mg/kg/day ip", "value": "212*² %"}, {"measurement": "Body weight change on day 4", "setting": "[5]; 0.25 mg/kg/day ip", "value": "+1.0 g"}, {"measurement": "MST (Median survival time)", "setting": "[5]; 0.25 mg/kg/day ip", "value": 11.5, "unit": "days"}, {"measurement": "T/C", "setting": "[5]; 0.25 mg/kg/day ip", "value": 115, "unit": "%"}, {"measurement": "Body weight change on day 4", "setting": "[5]; 0.5 mg/kg/day ip", "value": "+1.5 g"}, {"measurement": "MST (Median survival time)", "setting": "[5]; 0.5 mg/kg/day ip", "value": 13.0, "unit": "days"}, {"measurement": "T/C", "setting": "[5]; 0.5 mg/kg/day ip", "value": "130*² %"}, {"measurement": "Body weight change on day 4", "setting": "[5]; 1 mg/kg/day ip", "value": "+2.0 g"}, {"measurement": "MST (Median survival time)", "setting": "[5]; 1 mg/kg/day ip", "value": 14.0, "unit": "days"}, {"measurement": "T/C", "setting": "[5]; 1 mg/kg/day ip", "value": "140*² %"}, {"measurement": "Body weight change on day 4", "setting": "[5]; 2 mg/kg/day ip", "value": "+0.5 g"}, {"measurement": "MST (Median survival time)", "setting": "[5]; 2 mg/kg/day ip", "value": 15.5, "unit": "days"}, {"measurement": "T/C", "setting": "[5]; 2 mg/kg/day ip", "value": "155*² %"}, {"measurement": "Body weight change on day 4", "setting": "[5]; 4 mg/kg/day ip", "value": -0.8, "unit": "g"}, {"measurement": "MST (Median survival time)", "setting": "[5]; 4 mg/kg/day ip", "value": 16.5, "unit": "days"}, {"measurement": "T/C", "setting": "[5]; 4 mg/kg/day ip", "value": "165*² %"}, {"measurement": "Body weight change on day 4", "setting": "[6]; 0.5 mg/kg/day ip", "value": "+1.5 g"}, {"measurement": "MST (Median survival time)", "setting": "[6]; 0.5 mg/kg/day ip", "value": 10.0, "unit": "days"}, {"measurement": "T/C", "setting": "[6]; 0.5 mg/kg/day ip", "value": "125*² %"}, {"measurement": "Body weight change on day 4", "setting": "[6]; 1 mg/kg/day ip", "value": "+1.5 g"}, {"measurement": "MST (Median survival time)", "setting": "[6]; 1 mg/kg/day ip", "value": 10.0, "unit": "days"}, {"measurement": "T/C", "setting": "[6]; 1 mg/kg/day ip", "value": "125*² %"}, {"measurement": "Body weight change on day 4", "setting": "[6]; 2 mg/kg/day ip", "value": "+1.0 g"}, {"measurement": "MST (Median survival time)", "setting": "[6]; 2 mg/kg/day ip", "value": 10.5, "unit": "days"}, {"measurement": "T/C", "setting": "[6]; 2 mg/kg/day ip", "value": "131*² %"}, {"measurement": "Body weight change on day 4", "setting": "[6]; 4 mg/kg/day ip", "value": "+0.5 g"}, {"measurement": "MST (Median survival time)", "setting": "[6]; 4 mg/kg/day ip", "value": 11.0, "unit": "days"}, {"measurement": "T/C", "setting": "[6]; 4 mg/kg/day ip", "value": "138*² %"}, {"measurement": "Body weight change on day 4", "setting": "[6]; 8 mg/kg/day ip", "value": -0.3, "unit": "g"}, {"measurement": "MST (Median survival time)", "setting": "[6]; 8 mg/kg/day ip", "value": 12.5, "unit": "days"}, {"measurement": "T/C", "setting": "[6]; 8 mg/kg/day ip", "value": "156*² %"}]}
{"compound": "Telomycin", "values": [{"measurement": "activity against Gram-positive organism", "setting": "[7]", "value": "active"}, {"measurement": "effect against most Gram-negative bacteria", "setting": "[8]", "value": "little or no effect"}]}
{"compound": "C/C=C(\\C)C(=O)[C@@H](/C=C(\\C)[C@@H]1O[C@@](O)([C@](O)(CC)C(=O)N[C@@H]2C(=O)N3NCCC[C@H]3C(=O)N(O)[C@H](COC)C(=O)N(C)[C@H](C)C(=O)N3NCCC[C@@H]3C(=O)N[C@@H]([C@H](C)O)C(=O)O[C@@H]2C(C)C)CC[C@H]1C)CC", "note": "[azinothricin]", "values": [{"measurement": "activity against Gram-positive microorganisms", "setting": "[9]", "value": "primarily active"}]}
{"compound": "C=C1C(=O)N[C@@H](C)C(=O)N(C)[C@@H](C)C(=O)N[C@@H]([C@H](OC(=O)[C@@H](NC(=O)CC)[C@H](O)C(C)C)C(C)C)C(=O)N(C)[C@@H]([C@@H](C)OC)C(=O)O[C@H](C(C)C)[C@H](NC(C)=O)C(=O)O[C@H](Cc2ccccc2)C(=O)N1C", "note": "[FR900359] (Ac-[X1][dPhLac][NMeDha]A[NMeA][X1](Leu(3R-OH,Nα-propionyl))[NMeT](Me); ester 1-C)", "values": [{"measurement": "inhibition of platelet aggregation", "setting": "[10]", "value": "inhibition of platelet aggregation"}, {"measurement": "decrease of blood pressure", "setting": "[11]", "value": "decrease of blood pressure"}]}
